Measured values: ChEMBL document CHEMBL1201862, “PubChem BioAssay data set” (2004)
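Interpolation was linear, between the two tested concentrations surrounding the appropriate level; five concentrations were tested over 48 hours in 96-well plates. GI50: concentration for 50% inhibition of growth.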 Activity calls are given as the source filed them. Rule as the data show it: active = GI50 up to about 1.1 µM and inactive = higher.

Columns and labels:
Test in all cases: NCI anticancer screen, dose series, 48 h
HCC 2998 = test system: HCC 2998
COLO 205 = test system: COLO 205
HCT-15 = test system: HCT-15
SK-OV-3 = test system: SK-OV-3
CAKI-1 = test system: CAKI-1
M14 = test system: M14
OVCAR-3 = test system: OVCAR-3
UACC-62 = test system: UACC-62
NCI-H522 = test system: NCI-H522
HOP-92 = test system: HOP-92
U-251 = test system: U-251
OVCAR-8 = test system: OVCAR-8
RXF 393 = test system: RXF 393
MOLT-4 = test system: MOLT-4
SK-MEL-5 = test system: SK-MEL-5
NCI-H23 = test system: NCI-H23
Hs-578T = test system: Hs-578T
PC-3 = test system: PC-3
MDA-MB-435 = test system: MDA-MB-435
DU-145 = test system: DU-145

| Compound | GI50 (HCC 2998) | GI50 (COLO 205) | GI50 (HCT-15) [µM] | GI50 (SK-OV-3) | GI50 (CAKI-1) | GI50 (M14) | GI50 (OVCAR-3) | GI50 (UACC-62) | GI50 (NCI-H522) | GI50 (HOP-92) | GI50 (U-251) | GI50 (OVCAR-8) | GI50 (RXF 393) | GI50 (MOLT-4) | GI50 (SK-MEL-5) | GI50 (NCI-H23) | GI50 (Hs-578T) | GI50 (PC-3) | GI50 (MDA-MB-435) | GI50 (DU-145) |
| --- | --- | --- | --- | --- | --- | --- | --- | --- | --- | --- | --- | --- | --- | --- | --- | --- | --- | --- | --- | --- |
| COC(=O)/C(=N\NC(=O)c1ccccc1O)C(C#N)c1ccccc1 (stereo unspecified) | > 50 µM (inactive) | > 50 µM (inactive) | 17.4 | > 45.2 µM (inactive) | 27.7 µM (inactive) | 31.4 µM (inactive) | 16.6 µM (inactive) | 12.1 µM (inactive) | 17.2 µM (inactive) | 19.9 µM (inactive) | 32.1 µM (inactive) | 23.7 µM (inactive) | 16.5 µM (inactive) | 22.3 µM (inactive) | 22 µM (inactive) | 20.1 µM (inactive) |  |  |  |  |
| CC(=O)Oc1c2oc3cc(O)c(O)cc3c2c(OC(C)=O)c2oc3cc(O)c(O)cc3c12 [POLYOZELLIN] | 16.9 µM (inactive) | 15.4 µM (inactive) | 25.2 | 20.8 µM (inactive) | 29.2 µM (inactive) | 23.4 µM (inactive) | > 10 µM (inactive) | 16.6 µM (inactive) | 10.3 µM (inactive) |  | 1.56 µM (inactive) | 20.2 µM (inactive) | 18.1 µM (inactive) | 2.64 µM (inactive) | 18.6 µM (inactive) | 2.39 µM (inactive) | 12.2 µM (inactive) | 19.8 µM (inactive) | 1.82 µM (inactive) |  |
| COc1ccc(/C=C/c2cc(OC)c(OC)c(OC)c2)cc1 | 3.7 µM (inactive) | 3.14 µM (inactive) | 2.57 | 8.59 µM (inactive) | 3.53 µM (inactive) | 42 µM (inactive) | 3.26 µM (inactive) | 3.25 µM (inactive) | 2.85 µM (inactive) | 90.8 µM (inactive) | 2.61 µM (inactive) | 15.8 µM (inactive) | 1.48 µM (inactive) | 2.21 µM (inactive) | 3.68 µM (inactive) | 5.81 µM (inactive) |  |  |  |  |
| O=c1c2ccccc2n2n1CC(O)C2 (stereo unspecified) | > 100 µM (inactive) | > 100 µM (inactive) | > 100 | > 100 µM (inactive) | > 100 µM (inactive) | > 100 µM (inactive) | > 100 µM (inactive) | 0.641 µM (active) | > 100 µM (inactive) | > 100 µM (inactive) | > 100 µM (inactive) | > 100 µM (inactive) | > 100 µM (inactive) | > 100 µM (inactive) | > 100 µM (inactive) | > 100 µM (inactive) |  |  |  |  |
| COc1cc2c(c(OC)c1OC)-c1ccc(SC)c(=O)cc1C(CC(=O)Oc1cccc([N+](=O)[O-])c1)C2 (stereo unspecified) | 0.161 µM (active) | 0.489 µM (active) | 0.4 | 0.0736 µM (active) | 0.685 µM (active) | 0.412 µM (active) | 0.276 µM (active) | 0.356 µM (active) | 0.493 µM (active) | 3.09 µM (inactive) | 0.794 µM (active) | 0.767 µM (active) | 0.139 µM (active) | 1.15 µM (inactive) | 0.592 µM (active) | 0.78 µM (active) |  |  |  |  |
| C=C1CC2CC[C@@]34C[C@H]5O[C@@H]6C(O[C@H]7CC[C@H](CC(=O)OC8[C@H](C)C9OC%10C[C@]%11(C[C@@H]%12O[C@]%13(C[C@H](C)[C@@H]%14O[C@H]([C@H](O)C[C@H](O)CO)C[C@@H]%14O%13)C[C@H](C)[C@@H]%12O%11)OC%10CC9O[C@H]8C[C@H]8O[C@H](CC[C@@H]1O2)C[C@@H](C)C8=C)O[C@H]7[C@@H]6O3)[C@@H]5O4 (stereo partly specified) | 0.00201 µM (active) | 0.000492 µM (active) | 0.000935 | 0.00221 µM (active) | 0.000491 µM (active) | 0.00143 µM (active) | 0.000303 µM (active) | 0.000469 µM (active) | 0.000211 µM (active) | 0.00166 µM (active) | 0.000899 µM (active) | 0.00222 µM (active) | 0.000674 µM (active) | 0.000752 µM (active) | 0.00024 µM (active) | 0.000605 µM (active) |  | 0.000106 µM (active) | 0.0001 µM (active) | 0.000113 µM (active) |
| C/C=C/[C@H]1O[C@@](OC)([C@@H](C)[C@H](O)[C@H](C)[C@H]2OC(=O)/C(OC)=C/C(C)=C/[C@@H](C)[C@@H](O)[C@@H](C)[C@@H](O)[C@H](C)C/C(C)=C/C=C/[C@@H]2OC)CC(OC2CC(O)C(OC(N)=O)C(C)O2)[C@@H]1C (stereo partly specified) | < 0.01 µM (active) | < 0.01 µM (active) | < 0.01 | 7.48 µM (inactive) | < 0.01 µM (active) | < 0.01 µM (active) | < 0.01 µM (active) | < 0.01 µM (active) | < 0.01 µM (active) | 0.103 µM (active) | < 0.01 µM (active) | < 0.01 µM (active) | 2.39 µM (inactive) | < 0.01 µM (active) | < 0.01 µM (active) | 1.99 µM (inactive) | 2.08 µM (inactive) | < 0.01 µM (active) | < 0.01 µM (active) |  |
| CCN(CC)c1ccc2c(c1)Oc1ccc(N(CC)CC)cc1C21Oc2ccccc2-c2c1c1ccccc1n2CC (stereo unspecified) | 3.07 µM (inactive) | 2.45 µM (inactive) | 3.82 | 4.07 µM (inactive) | 5.15 µM (inactive) | 3.07 µM (inactive) | 1.25 µM (inactive) | 1.85 µM (inactive) | 1.3 µM (inactive) | 0.302 µM (active) | 1.68 µM (inactive) | 6.18 µM (inactive) | 1.81 µM (inactive) | 2.88 µM (inactive) | 1.56 µM (inactive) | 2.07 µM (inactive) |  |  |  |  |
| Cc1c2ccccc2c(C)c2c3c(ccc12)C(=O)C=CC3=O | 35.3 µM (inactive) | 15.7 µM (inactive) | 19.1 | > 60.5 µM (inactive) | 22.1 µM (inactive) | 30 µM (inactive) | 17.8 µM (inactive) | 35.8 µM (inactive) | 13.6 µM (inactive) | 15.1 µM (inactive) | 52.1 µM (inactive) | 14.9 µM (inactive) | 13 µM (inactive) | 2.26 µM (inactive) | 37.7 µM (inactive) | 32.3 µM (inactive) |  |  |  |  |
| Cc1nc(Nc2ccc(Cl)c(Cl)c2)sc1C(=O)/C=C/c1ccc2c(c1)OCO2 | 30.2 µM (inactive) | 24.7 µM (inactive) |  | 18.7 µM (inactive) | 16.5 µM (inactive) |  | 10.4 µM (inactive) | 37.6 µM (inactive) |  |  | 22 µM (inactive) | 23.2 µM (inactive) | 15.9 µM (inactive) | 14.9 µM (inactive) | 33.4 µM (inactive) | 20 µM (inactive) |  |  | 20.5 µM (inactive) | > 10 µM (inactive) |
| O=S(=O)(Cc1ccccc1)SCc1ccccc1 | 17.8 µM (inactive) | 19.5 µM (inactive) | 18.4 | 48.5 µM (inactive) | > 50.9 µM (inactive) | 14.3 µM (inactive) | 23.4 µM (inactive) | 23.3 µM (inactive) | 10.7 µM (inactive) | 18.5 µM (inactive) | 26 µM (inactive) | 15.2 µM (inactive) | 25.8 µM (inactive) | 3.09 µM (inactive) | 21.4 µM (inactive) | 23.1 µM (inactive) |  |  |  |  |
| Cc1ccc(S(=O)OCc2c(C)c(C)c(COS(=O)c3ccc(C)cc3)c(C)c2C)cc1 (stereo unspecified) | > 100 µM (inactive) | > 100 µM (inactive) | > 100 | > 100 µM (inactive) | > 100 µM (inactive) | > 100 µM (inactive) | > 100 µM (inactive) | > 100 µM (inactive) | > 100 µM (inactive) | > 100 µM (inactive) | > 100 µM (inactive) | > 100 µM (inactive) | > 100 µM (inactive) | > 100 µM (inactive) | > 100 µM (inactive) | > 100 µM (inactive) |  |  |  |  |
| CCCN(CCCC(NC(C)=O)C(=O)NCc1ccccc1)C(=O)N(C)N=O (stereo unspecified) | > 100 µM (inactive) | > 100 µM (inactive) | > 100 | > 100 µM (inactive) | > 100 µM (inactive) | > 100 µM (inactive) | > 100 µM (inactive) | > 100 µM (inactive) | > 100 µM (inactive) | > 100 µM (inactive) | > 100 µM (inactive) | > 100 µM (inactive) | > 100 µM (inactive) | 77.6 µM (inactive) | > 100 µM (inactive) | > 100 µM (inactive) |  |  |  |  |
| O=C1N[C@H]2c3c(Cl)sc(Cl)c3/C(=N/O)[C@H]2O1 | > 100 µM (inactive) | > 100 µM (inactive) | 67.9 | > 100 µM (inactive) | > 100 µM (inactive) | > 100 µM (inactive) | > 100 µM (inactive) | > 100 µM (inactive) |  |  | > 100 µM (inactive) | > 100 µM (inactive) | > 100 µM (inactive) | > 100 µM (inactive) | > 100 µM (inactive) |  |  | > 100 µM (inactive) | > 100 µM (inactive) | > 100 µM (inactive) |
| C=CC/N=C1/N=C(CC(=O)OCC)CS1 | > 100 µM (inactive) | > 100 µM (inactive) | > 100 | > 100 µM (inactive) | > 100 µM (inactive) | > 100 µM (inactive) | > 100 µM (inactive) | > 100 µM (inactive) | > 100 µM (inactive) | > 100 µM (inactive) | > 100 µM (inactive) | > 100 µM (inactive) | > 100 µM (inactive) |  | > 100 µM (inactive) | > 100 µM (inactive) |  |  |  |  |
| Cc1ccc(NC(=O)C(=O)Cc2cc[n+]([O-])cc2)cc1 | > 100 µM (inactive) | > 100 µM (inactive) | > 100 | > 100 µM (inactive) | > 100 µM (inactive) | > 100 µM (inactive) | > 100 µM (inactive) | > 100 µM (inactive) | > 100 µM (inactive) | > 100 µM (inactive) | > 100 µM (inactive) | > 100 µM (inactive) | > 100 µM (inactive) | > 100 µM (inactive) | > 100 µM (inactive) | > 100 µM (inactive) |  |  |  |  |
